Data taken from patent publication US9498476B2, “Crystalline form of 6-[(4S)-2-methyl-4-(2-naphthyl)-1,2,3,4-tetrahydroisoquinolin-7-yl]pyridazin-3-amine” (Bristol-Myers Squibb Company, priority 2008, dated 2016).

Assays:
Type in all cases: physicochemical
[1] = pH-Solubility profile (aqueous solubility)
[2] = Solubility profile (USP definition) in solvents
[3] = Distribution coefficient (Log Do/b); conditions: pH 6.5

Structure (SMILES): CN1Cc2cc(-c3ccc(N)nn3)ccc2[C@H](c2ccc3ccccc3c2)C1 [Form N-1, 6-[(4S)-1,2,3,4-tetrahydro-2-methyl-4-(2-naphthalenyl)-7-isoquinolinyl]-3-pyridazinamine]
- Aqueous solubility (in words) [1]: high aqueous solubility
- Solubility profile (USP definition) ([2]; acetone): slightly soluble: isopropanol, acetone, ethanol, methanol,
- Solubility profile (USP definition) ([2]; acetonitrile): very slightly soluble: acetonitrile, ethyl acetate,
- Solubility profile (USP definition) ([2]; dichloromethane): slightly soluble: isopropanol, acetone, ethanol, methanol,
- Solubility profile (USP definition) ([2]; ethanol): slightly soluble: isopropanol, acetone, ethanol, methanol,
- Solubility profile (USP definition) ([2]; ethyl acetate): very slightly soluble: acetonitrile, ethyl acetate,
- Solubility profile (USP definition) ([2]; isopropanol): slightly soluble: isopropanol, acetone, ethanol, methanol,
- Solubility profile (USP definition) ([2]; methanol): slightly soluble: isopropanol, acetone, ethanol, methanol,
- Solubility profile (USP definition) ([2]; n-butanol): very slightly soluble: acetonitrile, ethyl acetate,
- Solubility profile (USP definition) ([2]; propylene glycol): slightly soluble: isopropanol, acetone, ethanol, methanol,
- Distribution coefficient Log Do/b [3]: 3.10
